In patent US6150524A, “Morphine derivatives with analgesic activity” (priority 1995, dated 2000):
Counter-ions that a name gives are not always drawn. Like-named read-outs stand apart in the source and are kept apart here.

Tested on: mice
Assay: Haffner test ("Tail clip test") in mice
Type: in vivo, mouse (male CD mice)
Details: Mus musculus, read-out: ED50 (Haffner test in mice)
Excerpt: METHOD: Haffner Test ("Tail clip test") in Mice
The Haffner test is a standard procedure for determining the pain-inhibiting effect of powerful analgesics, mostly of the opioid type, in mice. The method largely corresponds to the one described by Bianchi C. and Franceschini J. (Brit. J. Pharmacol. 9:280, 1954; Experimental observations on Haffner's method for testing analgesic drugs).
Male CD mice (from Charles River, Sulzfeld, FRG) with an average weight of 30±5 grams were used. The animals were kept under standard conditions (temperature: 22±2° C., relative humidity: 55±10%, air exchange: 15-20 times per hour and 12/12 hours light/darkness cycle). The animals had unlimited access to food and water until the test began. During the test the animals were kept singly in Makrolon Type III cages with no bedding. A 3.5 cm arterial clamp was placed about 2 cm from the base of the tail and the pain reaction time was measured in seconds. Any active attempt by the animal to remove the clamp was assessed as a pain reaction. To prevent tissue damage, the test was stopped after at most 30 seconds in every case (cut off latency). In a preliminary test, mice with a pain reaction time of less than 5 seconds (base line latency) were selected for the actual test, which was carried out at specific intervals after the administration of the drug (test latency).
Corresponding quantities of test substances were dissolved in physiological saline solution for intravenous administration or in twice distilled water for oral administration. The total volume administered was 10 ml/kg of body weight in each case. Controls were given the same solvent but with no test substance. 8-10 mice were tested in each group.
The results were plotted as individual values (seconds), mean value±scattering (seconds) per group and as the percent of the maximum possible effect (% MPE=percent of Maximum Possible Effect). [formula] Significant differences between the control and test groups were calculated by means of an unpaired, two-sided Students T-test (*2P<0.05;**2P<0.01; 2P<0.001).
The ED50 value describes the dosage at which 50% of the maximum possible effect (MPE) is achieved. The ED50 value is calculated by linear regression between the dose and the % MPE.

Structure (SMILES) | ED50 (iv, 10 min, i.v., 10 min.) [µmol/kg] | ED50 (iv, 0.5 h, i.v., 30 min.) [µmol/kg] | ED50 (iv, 1 h, i.v., 60 min.) [µmol/kg] | ED50 (iv, 2 h, i.v., 120 min.) [µmol/kg] | ED50 (po, 0.5 h, p.o., 30 min.) [µmol/kg] | ED50 (po, 1 h, p.o., 60 min.) [µmol/kg] | ED50 (po, 2 h, p.o., 120 min.) [µmol/kg] | ED50 (po, 3 h, p.o., 180 min.) [µmol/kg] | ED50 (iv, 10 min) [µmol/kg] | ED50 (iv, 0.5 h) [µmol/kg] | ED50 (iv, 1 h) [µmol/kg] | ED50 (iv, 2 h) [µmol/kg] | ED50 (po, 0.5 h) [µmol/kg] | ED50 (po, 1 h) [µmol/kg] | ED50 (po, 2 h) [µmol/kg] | ED50 (po, 3 h) [µmol/kg]
COC(=O)CCCCC(=O)O[C@H]1CC[C@H]2[C@H]3Cc4ccc(O)c5c4[C@@]2(CCN3C)[C@H]1O5 [Example 4, 4,5α-Epoxy-6α-((5-methoxycarbonyl-valeryl)-oxy)-17-methyl-morphinan-3-ol acetate] | – | – | – | – | 0.039 | 0.044 | 0.073 | 0.189 | – | – | – | – | – | – | – | –
CN1CC[C@]23c4c5ccc(O)c4O[C@H]2[C@@H](OCCCCOC(=O)c2ccccc2)C=C[C@H]3[C@H]1C5 [Example 4] | 0.0004 | 0.0031 | 0.0119 | 0.0217 | 0.035 | 0.046 | 0.058 | 0.069 | – | – | – | – | – | – | – | –
COC(=O)c1ccc(CO[C@H]2C=C[C@H]3[C@H]4Cc5ccc(O)c6c5[C@@]3(CCN4C)[C@H]2O6)cc1 [Example 5] | 0.0008 | 0.0008 | 0.0032 | 0.0095 | 0.06 | 0.068 | 0.072 | 0.09 | – | – | – | – | – | – | – | –
CN1CC[C@]23c4c5ccc(O)c4O[C@H]2[C@@H](OCCCCOC(=O)C(C)(C)C)C=C[C@H]3[C@H]1C5 [Example 6] | 0.0005 | 0.0026 | 0.0114 | 0.029 | 0.058 | 0.108 | 0.12 | 0.132 | – | – | – | – | – | – | – | –
CN1CC[C@]23c4c5ccc(O)c4O[C@H]2[C@@H](OC(=O)C(C)(O)C(F)(F)F)C=C[C@H]3[C@H]1C5 (some centres unmarked) [Example 11] | 0.0056 | 0.007 | 0.013 | 0.019 | 0.148 | 0.172 | 0.256 | 0.269 | – | – | – | – | – | – | – | –
COc1ccc(CCCC(=O)O[C@H]2C=C[C@H]3[C@H]4Cc5ccc(O)c6c5[C@@]3(CCN4C)[C@H]2O6)cc1 [Example 19] | 0.002 | 0.0025 | 0.0033 | 0.0056 | 0.084 | 0.107 | 0.128 | 0.178 | – | – | – | – | – | – | – | –
COC(=O)CCCCC(=O)O[C@H]1C=C[C@H]2[C@H]3Cc4ccc(O)c5c4[C@@]2(CCN3C)[C@H]1O5 [Example 20] | 0.0037 | 0.0051 | 0.011 | 0.015 | 0.118 | 0.12 | 0.17 | 0.234 | – | – | – | – | – | – | – | –
COC(=O)CCCCCCC(=O)O[C@H]1C=C[C@H]2[C@H]3Cc4ccc(O)c5c4[C@@]2(CCN3C)[C@H]1O5 [Example 22, 4,5α-Epoxy-6α-((6-methoxycarbonyl-hexylcarbonyl)-oxy)-17-methyl-morphinan-7-en-3-ol] | 0.0025 | 0.0033 | 0.005 | 0.022 | 0.109 | 0.208 | 0.298 | 0.315 | – | – | – | – | – | – | – | –
CCOC(=O)CCCCCO[C@H]1C=C[C@H]2[C@H]3Cc4ccc(O)c5c4[C@@]2(CCN3C)[C@H]1O5 [Example 22] | 0.003 | 0.0037 | 0.01 | 0.012 | 0.055 | 0.09 | 0.096 | 0.086 | – | – | – | – | – | – | – | –
CCOC(=O)CCCCO[C@H]1C=C[C@H]2[C@H]3Cc4ccc(O)c5c4[C@@]2(CCN3C)[C@H]1O5 [Example 25] | 0.0011 | 0.0057 | 0.0112 | 0.0129 | 0.0201 | 0.028 | 0.031 | 0.037 | – | – | – | – | – | – | – | –
CN1CC[C@]23c4c5ccc(O)c4O[C@H]2[C@@H](OCCCCC#N)C=C[C@H]3[C@H]1C5 [Example 27] | 0.0059 | 0.0073 | 0.0154 | 0.038 | 0.059 | 0.073 | 0.108 | 0.178 | – | – | – | – | – | – | – | –
CCCC(COC1C=CC2C3Cc4ccc(O)c5c4C2(CCN3C)C1O5)OC(C)=O (centres unmarked) [Example 32] | 0.001 | 0.003 | 0.0099 | 0.024 | 0.068 | 0.12 | 0.154 | 0.232 | – | – | – | – | – | – | – | –
CCCC(O)CO[C@H]1C=C[C@H]2[C@H]3Cc4ccc(O)c5c4[C@@]2(CCN3C)[C@H]1O5 (some centres unmarked) [Example 33] | 0.0019 | 0.0046 | 0.0083 | 0.021 | 0.029 | 0.037 | 0.051 | 0.069 | – | – | – | – | – | – | – | –
CC(=O)OCCCO[C@H]1C=C[C@H]2[C@H]3Cc4ccc(O)c5c4[C@@]2(CCN3C)[C@H]1O5 [Example 38] | 0.0003 | 0.0019 | 0.0036 | 0.079 | 0.023 | 0.027 | 0.035 | 0.043 | – | – | – | – | – | – | – | –
CN1CC[C@]23c4c5ccc(O)c4O[C@H]2[C@@H](OCCCO)C=C[C@H]3[C@H]1C5 [Example 39] | – | – | – | – | 0.027 | 0.035 | 0.149 | 0.283 | – | – | – | – | – | – | – | –
CN1CC[C@]23c4c5ccc(O)c4O[C@H]2[C@@H](O)C=C[C@H]3[C@H]1C5 [Morphine.HCl, reference compound] | – | – | – | – | – | – | – | – | 0.017 | 0.019 | 0.021 | 0.037 | 0.279 | 0.296 | 0.539 | 0.718
